Measurements published in ChEMBL document CHEMBL1157539, “Thousands of chemical starting points for antimalarial lead identification” (Nature, 2010).

What follows are compounds tested on Plasmodium falciparum (assay: GSK_TCMDC: Inhibition of Plasmodium falciparum 3D7 in whole erythrocytes, using parasite LDH activity as an index of growth.). Conditions: not given.
Assay type: functional, organism-based

SMILES | XC50 [nM]
COc1ccc(C[C@@H](C)NC[C@H](O)c2cccc(Cl)c2)cc1F | 992

Same assay, conditions: Plasmodium falciparum, 3D7

SMILES | XC50 [nM]
CN1CCN(CCc2ccc3nc(-c4csc(Cc5cc(Cl)ccc5OCc5ccccc5)n4)[nH]c3c2)CC1 | 750
COC(=O)c1ccc2c(c1)nc(Nc1cccc(F)c1)n2CC(O)c1ccccn1 (stereo not drawn) | 728
Cc1cc(NCCC(=O)Nc2ccccc2)nc(NCCc2ccc(F)cc2)n1 | 1130
O=C(Nc1cc(C(F)(F)F)cc(C(F)(F)F)c1)c1cc(Cl)ccc1O [IMD-0354] | 1310
CN1CCC(N2CCN(Cc3ccc(-c4ccc(-c5nc6ccccc6[nH]5)s4)cc3)CC2)CC1 | 140
Cc1cc(C)c(C(=O)Nc2ccc3nc(C)cc(N)c3c2)c(C)c1 | 1100
Cc1cccc(C=NN=c2cc(C)[nH]c3ccc(F)cc23)n1 | 1000
COc1cccc2c(C)cc(NCc3ccc(Cl)cc3)nc12 | 860
CN(C)Cc1ccc(-c2ccc3c(Nc4ccc(Cl)cc4F)ccnc3c2)o1 | 241
Oc1ccccc1Nc1nc(NCc2ccco2)c2ccccc2n1 | 644
O=C(CN(c1cccc(C(F)(F)F)c1)S(=O)(=O)c1ccc(Cl)cc1)NCCC(c1ccccc1)c1ccccc1 | 743
COc1cc2nc(NCCc3ccccc3)nc(NCCc3ccccc3)c2cc1OC | 282
CN1CCN(c2ccc(Nc3nc(N)c4ccn(C5CCC5)c4n3)cc2)CC1 | 1220
CC(C)C[C@@H](C(=O)N[C@H](C(=O)Nc1nccs1)C(C)(C)C)[C@H](CCC(F)(F)F)N(O)C=O | 598
CCN(CC)CCCNc1nccc(N2CCc3ncnc(Nc4ccc(OCc5cccc(F)c5)c(Cl)c4)c3C2)n1 | 111
Cc1ccc(CN2CCN(Cc3cccc(NC(=O)c4ccc5ccccc5c4)c3)CC2)cc1C | 1220
CC(C)c1ccc(-c2nc3cc(Cl)cnc3[nH]2)cc1 | 857
N#Cc1ccc(N2CCN(Cc3ccc(-c4ccc(-c5nc6cc(F)ccc6[nH]5)s4)cc3)CC2)nc1 | 854
CCNc1cc(C)nc(Nc2ccccc2)n1 | 883
COc1ccc(S(=O)(=O)Nc2cc(Br)cc3c2OCCC3)cc1N1CCN(C(=O)C(Cl)(Cl)Cl)CC1 | 871
COc1ccc2nccc([C@@H](O)CN3CCC(NC(=O)/C=C/c4ccc5ccccc5n4)CC3)c2c1 | 993
CCc1cccc(OCC2CCCN(c3ccc(C(=O)NC4CC4)cn3)C2)c1 (stereo not drawn) | 1440
c1cc(CNc2ncc(-c3ccsc3)c(-c3nccs3)n2)ccn1 | 358
CC1(C)N=C(N)N=C(N)N1c1ccc2ccccc2c1 | 53.8

SMILES | XC50 [nM]
O=C(NCc1ccc(Cl)c(Cl)c1)c1ccc(-c2nc3ccc(F)cc3[nH]2)cc1 | 1030
CCCc1cc(Cc2cnc(N)nc2N)cc(CCC)c1OCCCCC(=O)OC | 41.9
Cn1cc(C2CCN(CCCCCNC(=O)/C=C/c3ccc(Cl)c(Cl)c3)CC2)c2cc(O)ccc21 | 943
Cc1cccc2nc(-c3ccc(-c4cccc(NC(=O)Nc5ccc(Cl)c(Cl)c5)c4)s3)[nH]c12 | 594
COc1ccc(NC(=O)[C@H](CC(C)C)Nc2cc(C)nc(Nc3ccccc3)n2)cc1 | 866
COc1ccc(S(=O)(=O)N2CCC(NS(=O)(=O)c3ccc(F)cc3)CC2)cc1 | 1330
CCCc1ccc(S(=O)(=O)NC2CCN(c3ccnc(Nc4ccc(F)cc4)n3)C2)cc1 (stereo not drawn) | 1010
CCN(CC)c1cc(C)c2cc(NC(=O)c3cc(=O)c4ccccc4o3)ccc2n1 | 224
c1cncc(CNc2ncc(-c3ccsc3)c(-c3nccs3)n2)c1 | 1380
CC(C)(C)c1cc(C(=O)N2CCN(c3cnccn3)CC2)n(Cc2ccccc2)n1 | 1140
O=C(Nc1ccncc1)c1cn(-c2ccccc2)nc1-c1cccs1 | 977
CC(Cc1ccc(NC(=O)[C@H](C)NCCc2cccc(Cl)c2)cc1)NCCc1cccc(Cl)c1 (stereo partly drawn) | 663
O=C(Nc1cccc(CN2CCCN(CC3CCCCC3)CC2)c1)c1cc2ccccc2s1 | 814
CN(C)c1ccc(C=C2SC(=N)N(c3nccs3)C2=O)cc1 | 461
COC(=O)c1cccc(CNCc2ccc(-c3cccc(-c4nc5ccccc5[nH]4)c3)cc2)c1 | 261
COc1ccc(CNCc2ccccc2)cc1-c1ccc(S(=O)(=O)NCCN2CCCC2)s1 | 674
CCN(CC)CCN(Cc1ccc(-c2ccc(C(F)(F)F)cc2)cc1)C(=O)Cn1cc(Cc2cnn(C)c2)c(=O)nc1/C=C/c1cccc(F)c1F | 957
COc1ccc(N(C)Cc2cnc3nc(N)nc(N)c3n2)cc1 | 284
COc1cccc(OC)c1OCCCOc1c(C)nc(N)nc1N | 459
O=C(NCc1ccccc1)NC(CCCN1CCC(Oc2cccc(Cl)c2)CC1)c1ccc(Cl)c(Cl)c1 (stereo not drawn) | 862
Cc1cc(Nc2ccc(C)c(C)c2)n2nc(C)nc2n1 | 599
CN(C)CCCNCc1cn(S(=O)(=O)c2ccccc2Cl)c2ccccc12 | 1070
COc1ccc(NC(=O)c2cccc(Br)c2)cc1N1CCN(CCCCCCCN2CCN(c3cc(NC(=O)c4cccc(Br)c4)ccc3OC)CC2)CC1 | 184
CCCCCc1cc(OC(=O)CCCN(CC)CC)c2c(c1)OC(C)(C)C=C2C1=CCN(Cc2ccc3ccccc3c2)CC1 | 156

SMILES | XC50 [nM]
Cc1cc(NC(=O)c2ccco2)ccc1OC1CCN(Cc2ccc(F)cc2)C1 (stereo not drawn) | 644
COc1cc(Cc2cnc3nc(N)nc(N)c3c2C)cc(OC)c1OC | 64.2
COc1ccc(CN2CCN(CCOC(c3ccccc3)c3ccccc3)CC2)c(O)c1 | 1190
CC(C)NCc1cccc(-c2ccc(NC(=O)c3cccc(C#N)c3)cc2)c1 | 324
CO/C(=C\C=C\c1cc2cc(Cl)c(Cl)cc2[nH]1)C(=O)NC1CCN(CCOc2ccccc2)CC1 | 611
Cc1cc(C)c(NC(=O)NC2CCN(CCCCCNC(=O)/C=C/c3ccc(Cl)c(Cl)c3)CC2)c(C)c1 | 797
Cc1ccc(CNc2cc(C(F)(F)F)nc(-c3ccc(S(C)(=O)=O)cc3)n2)cc1 | 498
COc1cc(NC(=O)c2sc(-c3ccc(Cl)cc3)cc2NC(=O)CN2CC[C@@H](O)C2)ccc1OCCN1CCCC1 | 802
Nc1nc(N)c2c(ccc3c2ccn3Cc2ccccn2)n1 | 8.31
Cc1cc(-c2ccc(CNCc3ccsc3)cc2)ccc1S(=O)(=O)NCCN1CCCC1 | 725
Cc1cccc(CN2CCN(c3ncc(C(=O)NC4CC4)cc3Cl)CC2)c1 | 1310
COc1cc2nc(N(C)C)nc(Nc3ccc(OCc4ccccc4)cc3)c2cc1OC | 71.8
CCc1ccc(CNCC(CCNc2cc(=O)c3ccccc3[nH]2)NCc2cc(Br)cc(Br)c2)o1 (stereo not drawn) | 638
CCCc1ccccc1OCC(O)CN(C1CCCC1)C1CCCC1 (stereo not drawn) | 470
O=C(Nc1ccc(-c2nc3ccccc3[nH]2)cc1)c1ccc(S(=O)(=O)N2CCCCC2)cc1 | 749
COc1ccc2nccc(NC(=O)N3CCC(NCc4cc5c(F)ccc(F)c5[nH]4)CC3)c2n1 | 221
CC1(C)CN2CCCC2c2cc(NC(=O)/C=C/c3ccccc3Cl)ccc21 (stereo not drawn) | 991
COc1ccc(NC(=O)NC2CCN(CCCCCNC(=O)/C=C/c3ccc(Cl)c(Cl)c3)CC2)cc1 | 1010
Cc1cccc(OCCCCON2C(=N)N=C(N)NC2(C)C)c1C | 3.2
CCCC(C)C(=O)N1CCOC(COCc2cccc(C(F)(F)F)c2)(c2ccc(Cl)cc2)C1 (stereo not drawn) | 403
COc1ccc2ccc(F)c(CCN3CCC(NCc4cc5c(cn4)OCCO5)CC3)c2n1 | 840
O=C(Nc1ccc(Cl)cc1)c1ccc(CN2CCCN(CC3CCCCC3)CC2)cc1 | 220
CN(c1cc(NC(=O)c2cccs2)ccn1)C1CCN(Cc2cccc(F)c2)CC1 | 676
COCCNCc1cccc(-c2ccc3nccc(Nc4cc(O)ccc4C)c3c2)c1 | 749
